# From US20210137941A1 (ZARODEX THERAPEUTICS LIMITED, priority 2018, published 2021)
# Experiments:
# [1] = tested on: circulating immunoglobulins; assay: Wild type mouse study: circulating immunoglobulin profile by ELISA; type: in vivo, C57BL/6 mice; conditions: FIG. 24
# [2] = tested on: collagen-induced arthritis (CIA); assay: Mouse collagen-induced arthritis (CIA) model: onset, incidence, clinical score, paw swelling; type: in vivo, DBA/1 mice
# Description: Adult (age 13-15 weeks) DBA/1 male mice were purchased from Envigo (Horst, Netherlands). Mice were housed at a 21° C.±2° C. in individually ventilated cages with free access to food and water and a 12-h light/dark cycle (7 am/7 pm). Mice were acclimatised for 1 week on arrival prior to initiating experiments.
# (§1) All experiments were approved by the Clinical Medicine Animal Welfare and Ethical Review Body (AWERB) and by the UK Home Office.
# DBA/1 mice were immunised with bovine type II collagen in CFA and monitored daily for onset of arthritis. […] Controls received vehicle (saline) alone. Treatment of mice commenced in one experiment on day 1 after immunisation and in a second experiment on day 15 after immunisation. Clinical scores and paw-swelling were monitored for 10 days following onset of arthritis. A clinical scoring system was used as follows. Arthritis severity was scored by an experienced, non-blinded investigator as follows: 0=normal, 1=slight swelling and/or erythema, 2=pronounced swelling, 3=ankylosis. All four limbs were scored, giving a maximum possible score of 12 per animal.
# (§2) Data were analyzed by one-way ANOVA with Tukey's or Dunnett's multiple comparison test or two-way ANOVA with Tukey's multiple comparison test as appropriate. All calculations were made using GraphPad Prism software. A P value less than 0.05 was considered significant.
# [3] = tested on: B220+ B cells, plasma cells, germinal centre B cells; assay: CIA model: B cell subsets in spleen and lymph nodes by FACS; type: in vivo, DBA/1 mice
# Description: as §1
# (§3) At the end of the experimental period, mice were humanely euthanised and bled by cardiac puncture to obtain blood samples for serum separation, storage at −80° C. and subsequent measurement of specific anti-collagen immunoglobulin (IgG1 and IgG2a isotypes) by ELISA. In parallel, spleen and inguinal lymph nodes were harvested for evaluation of cellular composition across these compartments using multi-laser flow cytometric detection and analysis. Numbers of B cell subsets in spleen and lymph nodes were determined by FACS.
# as §2
# [4] = tested on: anti-collagen IgG1 and IgG2a; assay: CIA model: serum anti-collagen immunoglobulin by ELISA; type: in vivo, DBA/1 mice; conditions: FIG. 33
# Description: as §1, §3, §2
# [5] = tested on: serum/plasma IgG, IgA, IgM; conditions: cited from earlier work
# [6] = in vivo; cited from earlier work
# [7] = outpatients on clozapine at least five years (Lozano et al., 2016)
# [8] = six weeks clozapine treatment (Hinze-Selch et al., 1998)
smiles,measurement,setting,value
"CN1CCN(C2=Nc3cc(Cl)ccc3Nc3ccccc32)CC1 [Clozapine, clozapine]",other circulating immunoglobulin isotype classes,[1],No other isotype classes were affected
same,circulating IgA levels compared to control,"[1]; clozapine 5 and 10 mg/kg, haloperidol 1 mg/kg, IP 21 days",reduction
same,swelling of the first affected paw,"[2]; 10 mg/kg from day 1, FIG. 27",reduced swelling of the first affected paw
same,onset of arthritis post-immunisation,"[2]; 5 or 10 mg/kg IP daily from day 1 or day 15, FIG. 25, 26",significantly effective
same,incidence of CIA,[2]; FIG. 26,reduces the incidence
same,"onset of arthritis, treatment from day 1","[2]; both doses (5, 10 mg/kg) from day 1, FIG. 25, 26",extremely effective
same,overall clinical score,"[2]; both doses, administered from day 1, FIG. 27",reduced overall clinical score
same,total number of affected paws compared to vehicle control,"[2]; significant with dosing at D1, FIG. 28",reduced the total number of affected paws
same,proportion of B220+ B cells in spleen,"[3]; 10 mg/kg from day 1, FIG. 29",significantly reduced
same,proportion of plasma cells in spleen,"[3]; 10 mg/kg given on day 1, FIG. 30",significant reduction
same,plasma cell numbers in lymph node,[3]; FIG. 30,no significant effect
same,level of GL7 expression on follicular B cells in lymph node,"[3]; all clozapine treatment groups vs vehicle, FIG. 32",significantly decreased
same,percentage of B220+ B cells in lymph nodes,"[3]; all doses and time points (5 or 10 mg/kg from day 1 or day 15), FIG. 29",significantly lower percentage
same,lymph node follicular B cells (B220+IgD-Fas+GL7hi),"[3]; all doses/both time points, FIG. 31",Strikingly significant reductions
same,serum anti-type II collagen IgG1 reduction,[4]; 10 mg/kg from day 15,reaching statistical significance
same,serum anti-type II collagen IgG2a,"[4]; 5 or 10 mg/kg from day 1 or day 15, single time point",no significant impact
same,serum anti-type II collagen IgG1,[4]; across all doses tested,nominal reductions
same,admitted to hospital with infection,clozapine group (vs 0.06 controls),0.12 per patient year
same,"Admission frequency in 12-month period, infection-related: admissions",clozapine-treated patients,15
same,"Admission frequency in 12-month period, infection-related: patients",clozapine-treated patients,10 patients
same,"IgA, IgG, absolute neutrophil count and white blood cell count vs control group",[5]; [7],no differences were found
same,mean plasma levels of IgM vs control group,[5]; [7],overall decrease
same,IgA or IgM concentrations,[5]; [8],no significant effect
same,serum concentrations of IgG,[5]; [8],significant increases
same,LD50,[6],200 mg/kg
